Experimental data taken from patent US20230027295A1, “FXIA INHIBITORS AND PREPARATION METHOD THEREFOR AND PHARMACEUTICAL USE THEREOF” (Shenzhen Salubris Pharmaceuticals Co., Ltd., priority 2019, published 2023).

Tests used:
[1] = Cynomolgus monkey pharmacokinetics; assay type: in vivo; set-up: AUC: concentration or dose not given beside the values
Excerpt: Example 53: Investigation of the Pharmacokinetic Characteristics of the Compounds of the Present Invention
SD rats: male, 180-250 g, purchased from Guangdong Medical Laboratory Animal Center. Cynomolgus monkey: male, 4-6 kg, purchased from Guangzhou Chunsheng Biological Research Institute Co., Ltd. Beagle dog: male, 8-12 kg, developed in Kanglong Chemical (Ningbo) New Drug Technology Co., Ltd.
Reagents: DMSO (dimethyl sulfoxide), PEG-400 (polyethylene glycol 400), normal brine, heparin, acetonitrile, formic acid, and propranolol (internal standard) are commercially available.
Instrumentation: Thermo Fisher Scientific LC-MS (U300 UPLC, TSQ […] ULTRA triple quadrupole mass spectrometer).
The compound was weighed and dissolved in DMSO-PEG-400-physiological brine (5:60:35, v/v/v) system. After the rats/monkeys were administered intravenously or by gavage, 200 μL of venous blood was collected at 5 min (not collected when administered by gavage), 15 min, 30 min, 1 h, 2 h, 4 h, 6 h, 8 h, and 24 h in heparinized EP tubes, centrifuged at 12000 rpm for 2 min, and the plasma was frozen at −80° C. for testing. A certain amount of the test substance was precisely weighed and dissolved in DMSO to 1 mg/mL, which was used as a stock solution. An appropriate amount of compound stock solution was accurately pipetted and diluted with acetonitrile to prepare a standard series of solutions. 20 μL of each of the above standard series solutions were accurately pipetted, added with 180 μL of blank plasma, vortexed and mixed to prepare plasma samples equivalent to plasma concentrations of 1, 3, 10, 30, 100, 300, 1000, 3000 and 5000 ng/mL. Two-sample analysis was performed for each concentration to establish a standard curve. 20 μL of plasma was taken out, added with 200 μL of internal standard propranolol (5 ng/mL) in acetonitrile, vortexed and mixed. It was centrifuged at 4000 rpm for 5 min, and the supernatant was collected for LC-MS analysis. LC-MS detection conditions were as follows:
Chromatographic column: Thermo Scientific […] GOLD C-18 UPLC column, 100*2.1 mm, 1.9 μm.
Mobile phase: water (0.1% formic acid)-acetonitrile for gradient elution according to the table below.
After blood drug concentrations being detected by LC-MS, WinNonlin 6.1 software was used to calculate pharmacokinetic parameters by non-compartmental model method.

Caco-2 permeability = assay type: in vitro ADME; conditions: human
Procedure: Example 54: Investigation of the Caco-2 Data of the Compounds of the Present Invention
Medium: DMEM (Corning), FBS (Corning), double antibody (Solarbio), 96-well HTS transwell plate (Corning), Caco-2 cells.
Experimental method: Caco-2 cells were cultured on 96-well HTS transwell plate for 14-18 days, and the TEER value of each well was detected to ensure that the cells in each well formed a complete monolayer. Drug was added and it was incubated for 2h to detect the drug concentrations of A-B and B-A.
Data processing: PappA-B and PappB-A values were calculated: Papp=(VA×[drug]acceptor)/(Area×Time×[drug]initial, donor); Efflux Ratio was calculated: Efflux Ratio=Papp(B-A)/Papp(A-B).

[2] = Caco-2 monolayer, 2h incubation

In the case of `COc1cn([C@@H](Cc2ccccc2)C(=O)Nc2ccc(C(=O)O)cc2)c(=O)cc1-c1cc(Cl)ccc1C(C)=O` [Compound B, (S)-4-(2-(4-(2-acetyl-5-chlorophenyl)-5-methoxy-2-oxopyridinium-1(2H)-yl)-3-phenylpropanamido)benzoic acid, reference compound], the F ([1]; ig) is reported as 4.1%, the AUC ([1]; male, plasma, iv) is reported as 4220 ng·h/mL and the Cmax ([1]; male, plasma, iv) is reported as 8760 ng/mL. The Tmax ([1]; male, plasma, iv) was 0.083 h, the clearance ([1]; male, plasma, iv) was 4.1 mL/min/kg and the half-life ([1]; male, plasma, iv) was 1.2 h. For the same compound, the Vd ([1]; male, plasma, iv, read-out: Vss) was 0.2 L/kg, the AUC ([1]; male, plasma, po, ig) was 1490 ng·h/mL and the Cmax ([1]; male, plasma, po, ig) was 108 ng/mL. It also gave a Tmax ([1]; male, plasma, po, ig) of 2 h, a half-life ([1]; male, plasma, po, ig) of 8 h and an efflux ratio at 2 h (Caco-2 permeability; Caco-2, Papp(B-A)/Papp(A-B)) of 8.75. The Papp A→B at 2 h (Caco-2 permeability; [2]) was 1.55 ×10⁻⁶ cm/s and the Papp B→A at 2 h (Caco-2 permeability; [2]) was 13.6 ×10⁻⁶ cm/s.
